Experimental data reported in US20250205259A1, “CLASS OF 7-((FIVE-MEMBERED HETEROCYCLIC)METHYL)-8-CARBOXYLIC ACID-BENZO CYCLIC BORATE DERIVATIVES AND USES THEREOF” (priority 2022, published 2025).
Read-outs that look alike come from different tables or passages of the source.

Tests used:
Format in all cases: biochemical
[1] = molecular target: KPC-2 (Klebsiella pneumoniae, UniProt Q9F663); test: Inhibitory activity on SBL, fluorescent substrate FC-5; settings: for inhibitory activity on KPC-2 compared to avibactam: comparison in words; for IC50: read-out: Inhibitory activity on SBL KPC-2 (IC50 class)
[2] = molecular target: VIM-1 (Pseudomonas aeruginosa, UniProt A0A0F7KYQ8); test: Inhibitory activity on MBL, fluorescent substrate FC-5
[3] = molecular target: OXA-48 (Klebsiella pneumoniae, UniProt Q6XEC0); test: Inhibitory activity on SBL, fluorescent substrate FC-5; settings: for inhibitory activity on OXA-48 compared to avibactam: comparison in words; for IC50: read-out: Inhibitory activity on SBL OXA-48 (IC50 class)
[4] = molecular target: VIM-2 (Escherichia coli, UniProt Q5U7L7); test: Inhibitory activity on MBL, fluorescent substrate FC-5
[5] = molecular target: CTX-M-14 (Escherichia coli, UniProt Q9L5C7); test: Inhibitory activity on SBL, fluorescent substrate FC-5; settings: for inhibitory activity on CTX-M-14 compared to avibactam: comparison in words; for IC50: read-out: Inhibitory activity on SBL CTX-M-14 (IC50 class)
[6] = molecular target: NDM-5 (Klebsiella pneumoniae, UniProt C7C422, M154L/V88L); test: Inhibitory activity on MBL, fluorescent substrate FC-5
[7] = molecular target: IMP-1 (Serratia marcescens, UniProt P52699); test: as above
[8] = molecular target: NDM-1 (Klebsiella pneumoniae, UniProt C7C422); test: as above
[9] = molecular target: TEM-1 (Escherichia coli, UniProt P62593); test: Inhibitory activity on SBL, fluorescent substrate FC-5; settings: for inhibitory activity on TEM-1 compared to avibactam: comparison in words; for IC50: read-out: Inhibitory activity on SBL TEM-1 (IC50 class)
[10] = VIM-1 and/or VIM-2, read-out: inhibitory activity at a nanomolar-level on VIM-1 and/or VIM-2
[11] = read-out: Inhibitory activity on MBL VIM-1 (IC50 class)
[12] = read-out: Inhibitory activity on MBL VIM-2 (IC50 class)
[13] = read-out: Inhibitory activity on MBL NDM-5 (IC50 class)
[14] = read-out: inhibitory activity at a nanomolar-level on NDM-5
[15] = IMP-1 and/or IMP-4, read-out: inhibitory activity at a nanomolar-level on IMP-1 and/or IMP-4
[16] = read-out: Inhibitory activity on MBL IMP-1 (IC50 class)
[17] = read-out: Inhibitory activity on MBL NDM-1 (IC50 class)
[18] = read-out: inhibitory activity at a nanomolar-level on NDM-1

Chain of IMP-1 (P52699 19-246 limits assumed): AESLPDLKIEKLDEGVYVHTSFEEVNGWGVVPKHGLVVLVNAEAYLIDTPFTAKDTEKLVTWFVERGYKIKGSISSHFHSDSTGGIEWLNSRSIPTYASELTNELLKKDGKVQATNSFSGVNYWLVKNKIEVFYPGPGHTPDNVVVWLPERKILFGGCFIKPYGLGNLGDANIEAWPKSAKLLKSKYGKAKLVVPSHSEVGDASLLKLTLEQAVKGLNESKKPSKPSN
Chain of TEM-1 (P62593 24-286 limits assumed): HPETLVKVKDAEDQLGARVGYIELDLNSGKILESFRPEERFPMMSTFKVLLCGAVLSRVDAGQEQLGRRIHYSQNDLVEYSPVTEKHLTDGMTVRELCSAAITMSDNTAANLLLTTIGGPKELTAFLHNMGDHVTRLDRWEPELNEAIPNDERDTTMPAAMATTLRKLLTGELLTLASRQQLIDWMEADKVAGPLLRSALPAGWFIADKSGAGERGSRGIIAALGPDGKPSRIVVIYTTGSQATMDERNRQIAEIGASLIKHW
Chain of CTX-M-14 (Q9L5C7 entry or part of it): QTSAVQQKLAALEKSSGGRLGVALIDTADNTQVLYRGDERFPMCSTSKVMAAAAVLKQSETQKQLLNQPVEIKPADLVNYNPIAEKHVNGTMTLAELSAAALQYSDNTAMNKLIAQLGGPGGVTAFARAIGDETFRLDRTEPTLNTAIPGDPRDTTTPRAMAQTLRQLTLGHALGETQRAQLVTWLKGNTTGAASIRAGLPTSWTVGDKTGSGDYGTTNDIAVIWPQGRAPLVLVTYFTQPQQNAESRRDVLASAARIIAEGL
Chain of NDM-1 (C7C422 29-270 limits assumed): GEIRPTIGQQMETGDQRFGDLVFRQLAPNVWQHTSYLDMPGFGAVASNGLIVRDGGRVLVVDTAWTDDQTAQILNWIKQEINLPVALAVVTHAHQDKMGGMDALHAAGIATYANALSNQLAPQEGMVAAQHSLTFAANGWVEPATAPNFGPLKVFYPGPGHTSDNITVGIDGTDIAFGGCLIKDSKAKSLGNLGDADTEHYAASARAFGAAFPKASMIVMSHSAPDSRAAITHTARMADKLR
Chain of KPC-2 (Q9F663 25-293 limits assumed): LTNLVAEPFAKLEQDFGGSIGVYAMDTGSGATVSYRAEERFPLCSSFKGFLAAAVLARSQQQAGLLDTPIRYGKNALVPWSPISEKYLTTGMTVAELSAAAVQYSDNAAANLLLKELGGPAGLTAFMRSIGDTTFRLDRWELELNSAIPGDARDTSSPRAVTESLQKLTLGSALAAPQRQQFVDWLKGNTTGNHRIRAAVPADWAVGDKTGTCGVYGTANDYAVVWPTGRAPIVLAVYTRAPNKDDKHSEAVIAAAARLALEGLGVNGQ
Chain of NDM-5 (C7C422 29-270 V88L/M154L): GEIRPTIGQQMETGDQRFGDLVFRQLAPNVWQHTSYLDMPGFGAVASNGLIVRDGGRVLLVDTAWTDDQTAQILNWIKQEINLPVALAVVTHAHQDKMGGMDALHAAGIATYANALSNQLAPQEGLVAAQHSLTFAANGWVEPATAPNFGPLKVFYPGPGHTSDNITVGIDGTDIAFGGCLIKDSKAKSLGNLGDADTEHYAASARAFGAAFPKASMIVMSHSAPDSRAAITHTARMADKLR
Chain of OXA-48 (Q6XEC0 23-265 limits assumed): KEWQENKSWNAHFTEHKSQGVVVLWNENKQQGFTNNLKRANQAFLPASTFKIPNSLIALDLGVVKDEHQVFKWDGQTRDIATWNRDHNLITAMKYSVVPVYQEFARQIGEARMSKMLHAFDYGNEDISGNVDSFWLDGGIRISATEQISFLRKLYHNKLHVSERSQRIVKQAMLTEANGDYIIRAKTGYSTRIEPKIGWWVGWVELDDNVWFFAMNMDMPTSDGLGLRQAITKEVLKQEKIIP

SMILES: Nc1ccc(-c2cn(Cc3ccc4c(c3C(=O)O)OB(O)CC4)nn2)cc1 [Compound 59]
- inhibitory activity on KPC-2 compared to avibactam [1]: better or comparable
- IC50 [1]: < 0.01 µM
- IC50 [2, 10]: < 1 µM
- IC50 [2, 11]: 0.01 to 1 µM
- inhibitory activity on OXA-48 compared to avibactam [3]: better or comparable
- IC50 [3]: < 0.01 µM
- IC50 [4, 12]: 0.01 to 1 µM
- inhibitory activity on CTX-M-14 compared to avibactam [5]: better or comparable
- IC50 [5]: < 0.01 µM
- IC50 [6, 13]: 0.01 to 1 µM
- IC50 [6, 14]: < 1 µM
- IC50 [7, 15]: < 1 µM
- IC50 [7, 16]: 0.01 to 1 µM
- IC50 [8, 17]: 0.01 to 1 µM
- IC50 [8, 18]: < 1 µM
- inhibitory activity on TEM-1 compared to avibactam [9]: better or comparable
- IC50 [9]: < 0.01 µM

SMILES: Nc1ccc(-c2cn(Cc3ccc4c(c3C(=O)O)OB(O)CC4)nn2)cn1 [Compound 60]
- inhibitory activity on KPC-2 compared to avibactam [1]: better or comparable
- IC50 [1]: < 0.01 µM
- IC50 [2, 10]: < 1 µM
- IC50 [2, 11]: 0.01 to 1 µM
- inhibitory activity on OXA-48 compared to avibactam [3]: better or comparable
- IC50 [3]: < 0.01 µM
- IC50 [4, 12]: 0.01 to 1 µM
- inhibitory activity on CTX-M-14 compared to avibactam [5]: better or comparable
- IC50 [5]: 0.01 to 1 µM
- IC50 [6, 13]: 0.01 to 1 µM
- IC50 [6, 14]: < 1 µM
- IC50 [7, 15]: < 1 µM
- IC50 [7, 16]: 0.01 to 1 µM
- IC50 [8, 17]: 0.01 to 1 µM
- IC50 [8, 18]: < 1 µM
- inhibitory activity on TEM-1 compared to avibactam [9]: better or comparable
- IC50 [9]: 0.01 to 1 µM

SMILES: Nc1ncc(-c2cn(Cc3ccc4c(c3C(=O)O)OB(O)CC4)nn2)cn1 [Compound 61]
- inhibitory activity on KPC-2 compared to avibactam [1]: better or comparable
- IC50 [1]: < 0.01 µM
- IC50 [2, 10]: < 1 µM
- IC50 [2, 11]: 0.01 to 1 µM
- inhibitory activity on OXA-48 compared to avibactam [3]: better or comparable
- IC50 [3]: < 0.01 µM
- IC50 [4, 12]: 0.01 to 1 µM
- inhibitory activity on CTX-M-14 compared to avibactam [5]: better or comparable
- IC50 [5]: 0.01 to 1 µM
- IC50 [6, 13]: 0.01 to 1 µM
- IC50 [6, 14]: < 1 µM
- IC50 [7, 15]: < 1 µM
- IC50 [7, 16]: 0.01 to 1 µM
- IC50 [8, 17]: 0.01 to 1 µM
- IC50 [8, 18]: < 1 µM
- inhibitory activity on TEM-1 compared to avibactam [9]: better or comparable
- IC50 [9]: 0.01 to 1 µM

SMILES: NS(=O)(=O)c1ccc(-c2cn(Cc3ccc4c(c3C(=O)O)OB(O)CC4)nn2)cc1 [Compound 62]
- inhibitory activity on KPC-2 compared to avibactam [1]: better or comparable
- IC50 [1]: < 0.01 µM
- IC50 [2, 10]: < 1 µM
- IC50 [2, 11]: 0.01 to 1 µM
- inhibitory activity on OXA-48 compared to avibactam [3]: better or comparable
- IC50 [3]: < 0.01 µM
- IC50 [4, 12]: 0.01 to 1 µM
- IC50 ([4]; read-out: inhibitory activity on VIM-2): < 0.01 µM
- inhibitory activity on CTX-M-14 compared to avibactam [5]: better or comparable
- IC50 [5]: < 0.01 µM
- IC50 [6, 13]: 0.01 to 1 µM
- IC50 [6, 14]: < 1 µM
- IC50 [7, 15]: < 1 µM
- IC50 [7, 16]: 0.01 to 1 µM
- IC50 [8, 17]: 0.01 to 1 µM
- IC50 [8, 18]: < 1 µM
- inhibitory activity on TEM-1 compared to avibactam [9]: better or comparable
- IC50 [9]: 0.01 to 1 µM

SMILES: NCc1ccc(-c2cn(Cc3ccc4c(c3C(=O)O)OB(O)CC4)nn2)cc1 [Compound 63]
- inhibitory activity on KPC-2 compared to avibactam [1]: better or comparable
- IC50 [1]: < 0.01 µM
- IC50 [2, 10]: < 1 µM
- IC50 [2, 11]: 0.01 to 1 µM
- inhibitory activity on OXA-48 compared to avibactam [3]: better or comparable
- IC50 [3]: < 0.01 µM
- IC50 [4, 12]: 0.01 to 1 µM
- inhibitory activity on CTX-M-14 compared to avibactam [5]: better or comparable
- IC50 [5]: 0.01 to 1 µM
- IC50 [6, 13]: 0.01 to 1 µM
- IC50 [6, 14]: < 1 µM
- IC50 [7, 15]: < 1 µM
- IC50 [7, 16]: 0.01 to 1 µM
- IC50 [8, 17]: 0.01 to 1 µM
- IC50 [8, 18]: < 1 µM
- inhibitory activity on TEM-1 compared to avibactam [9]: better or comparable
- IC50 [9]: 0.01 to 1 µM

SMILES: NCc1cnn(Cc2ccc3c(c2C(=O)O)OB(O)[C@@H](Sc2nncs2)C3)c1 [Compound 68]
- IC50 [1]: 1 to 100 µM
- IC50 [2, 11]: 1 to 100 µM
- IC50 [3]: 1 to 100 µM
- IC50 [4, 12]: 0.01 to 1 µM
- IC50 [5]: 1 to 100 µM
- IC50 [6, 13]: 1 to 100 µM
- IC50 [7, 16]: 1 to 100 µM
- IC50 [8, 17]: 0.01 to 1 µM
- IC50 [9]: 1 to 100 µM

SMILES: CO[C@H]1Cc2ccc(Cn3cc(CN)cn3)c(C(=O)O)c2OB1O [Compound 69]
- IC50 [1]: 1 to 100 µM
- IC50 [2, 11]: 1 to 100 µM
- IC50 [3]: 1 to 100 µM
- IC50 [4, 12]: 0.01 to 1 µM
- IC50 [5]: 1 to 100 µM
- IC50 [6, 13]: 1 to 100 µM
- IC50 [7, 16]: 1 to 100 µM
- IC50 [8, 17]: 0.01 to 1 µM
- IC50 [9]: 1 to 100 µM

SMILES: NC1CN(Cc2cnn(Cc3ccc4c(c3C(=O)O)OB(O)CC4)c2)C1 [Compound 75]
- IC50 [1]: 0.01 to 1 µM
- IC50 [2, 11]: 1 to 100 µM
- IC50 [3]: 1 to 100 µM
- IC50 [4, 12]: > 100 µM
- IC50 [5]: 1 to 100 µM
- IC50 [6, 13]: > 100 µM
- IC50 [7, 16]: > 100 µM
- IC50 [8, 17]: 1 to 100 µM
- IC50 [9]: 1 to 100 µM
